Where two headings read alike, the source gives them in different places.
What was measured:
breast cancer = details: cited from earlier work
stage IV gastric cancer [1] = assay: Example 7: trial ASLAN001-002, maintenance monotherapy, patient with stage IV gastric cancer; assay type: in vivo, human
Experimental: A person (ASLAN001-002 2B302) had the underlying disease of gastro-esophageal reflux disease. They were diagnosed with stage IV gastric cancer in Jul. 2016.
They joined the clinical trial, ASLAN001-002. The study treatment of cisplatin/capecitabine plus continuous 300 mg varlitinib per oral twice a day started on 6 Sep. 2016. After 6 cycles (21 days/cycle) of combined regimen, they continue varlitinib monotherapy. The total treatment duration of varlitinib maintenance therapy was 134 days. […] The study treatment was discontinued due to disease progression.

stage IV bladder cancer = assay: Example 6: trial ASLAN001-002SG, maintenance monotherapy, patient with stage IV bladder cancer; assay type: in vivo, human
Description: A person (ASLAN001-002SG DNT/0012) had the past history of type 2 diabetes mellitus, atrial fibrillation, hypertension, hyperlipidemia, and grade 1 hearing loss. They were diagnosed with stage IV bladder cancer and received radical cystoprostatectomy on 13 Dec. 2013. They also received cisplatin based concurrent radiotherapy on 20 Feb. 2014, and gemcitabine plus cisplatin from 10 Apr. to 8 May 2015.
They joined the clinical trial, ASLAN001-002SG. The study treatment of bi-weekly FOLFOX plus continuous 300 mg varlitinib per oral twice a day started on 24 Aug. 2015. After 9 cycles (14 days/cycle) of combined regimen, they continued varlitinib monotherapy. The total treatment duration of varlitinib maintenance therapy was 140 days. […] The study treatment was discontinued due to disease progression.

stage IV gastric cancer [2] = assay: Example 5: trial ASLAN001-002, maintenance monotherapy, patient with stage IV gastric cancer; assay type: in vivo, human
Experimental: A person (ASLAN001-002 2A102) had the past history of hypertension for more than 5 years. They were diagnosed with stage IV gastric cancer in April 2015.
They joined the clinical trial, ASLAN001-002. The study treatment of cisplatin/5-FUplus continuous 400 mg varlitinib per oral twice a day started on 12 May 2015. After 6 cycles (28 days/cycle) of combined regimen, they continued 400 mg varlitinib monotherapy for another 112 days. […] The total treatment duration of varlitinib maintenance therapy was 243 days. […] The study treatment was discontinued due to disease progression.

[3] = test system: choloangiocarcinoma (CCA); assay: Example 2: maintenance monotherapy, patient with cholangiocarcinoma; assay type: in vivo, human
Experimental: A person with choloangiocarcinoma (CCA), namely […] adenocarcinoma had already received surgery, was administered varlitinib at a dose of 400 mg bi-daily in combination with doublet chemotherapy for six 28-day cycles. Varlitinib was then used as maintenance therapy as monotherapy for 10 additional cycles, of 28 days of treatment.

[4] = test system: stage IV cholangiocarcinoma; assay: Example 4: trial ASLAN001-002, maintenance monotherapy, patient with stage IV cholangiocarcinoma; assay type: in vivo, human
Experimental: A person (ASLAN001-002 2A101) had the past history of type 2 diabetes mellitus and hypertension for more than 10 years. They were diagnosed with stage IV cholangiocarcinoma in November 2014.
They joined the clinical trial, ASLAN001-002. The study treatment of cisplatin/5-FU plus continuous 400 mg varlitinib per oral twice a day started on 27 Jan. 2015.
After 6 cycles (28 days/cycle) of combined regimen, […] continued 400 mg varlitinib monotherapy for another 99 days. […] The total treatment duration of varlitinib maintenance therapy was 287 days.
The study treatment was discontinued due to disease progression.

[5] = test system: gastric tumors co-expressing EGFR and HER2 or HER2 amplified; assay: Phase I monotherapy trial in gastric cancer patients, tumor biopsies by immunohistochemistry; assay type: in vivo, human; details: 23 patients, 500 mg orally twice daily, monotherapy for 28 days; biopsies before and after treatment
Experimental: It has been tested as a monotherapy in phase I clinical trials of gastric cancer patients. 23 patients, who had previously failed on one or more rounds of chemotherapy and, where eligible, trastuzumab, each received 500 mg of ASLAN001 orally twice daily as monotherapy for 28 days. Tumor biopsies taken before and after treatment were analysed using immunohistochemistry.

[6] = test system: intrahepatic cholangiocarcinoma; assay: Example 3: trial ASLAN001-002SG, maintenance monotherapy, patient with intrahepatic cholangiocarcinoma; assay type: in vivo, human
Description: A person ([…]/0013) had the past history of meningioma post left craniotomy for tumor excision in 2007. They were diagnosed with intrahepatic cholangiocarcinoma in July 2013, and received left hemihepatectomy followed by adjuvant chemotherapy (gemcitabine plus cisplatin) from 14 Aug. 2013 to 8 Jan. 2014. Disease relapse was found in […]. Thus, they received systemic treatment with gemcitabine plus cisplatin from 13th May to 1 Jul. 2015. They joined the clinical trial, […]. The study treatment of bi-weekly FOLFOX plus continuous 400 mg varlitinib per oral twice a day started on 4 Aug. 2015. […] 2015, varlitinib was interrupted and reduced to 300 mg twice a day in combination with FOLFOX. After 9 cycles (14 days/cycle) of combined regimen, they continue varlitinib monotherapy.

[7] = General tolerability in patients; assay type: in vivo, human; details: in comparison to many anti-cancer treatments
[8] = test system: squamous cell carcinoma of the cervix; assay: Example 1: maintenance therapy, patient with squamous cell carcinoma of the cervix; assay type: in vivo, human; details: 300 mg bi-daily; one patient, progressing after radiation and chemotherapy
Experimental: A patient diagnosed with squamous cell carcinoma of the cervix was initially treated with radiation therapy and concurrent weekly cisplatin. They had recurring disease the following year. They subsequently received a number of lines of chemotherapy, including topotecan/cisplating and ifosfamide. The cancer continued to progress.
They received 300 mg bi-daily of varlitinib for 6.5 years.
The patient received varlitinib maintenance therapy for about 6.5 years before developing transitional cell carcinoma of the bladder. It is likely that this bladder carcinoma was a result receiving pelvic radiation and/or treatment with ifsoamide.

[9] = women who didn't take hormone replacement therapy

What does the source list for `CC/C(=C(\c1ccccc1)c1ccc(OCCN(C)C)cc1)c1ccccc1` [tamoxifen]?
reduction of the risk of breast cancer (breast cancer; women at high risk, long-term study): 29%; effect on the risk of estrogen-receptor-negative breast cancer (breast cancer; women at high risk): didn't reduce the risk; reduction of the risk of estrogen-receptor-positive breast cancer (breast cancer; women at high risk): 35%; reduction of the risk of breast cancer (breast cancer; [9]): 38%; reduction of the risk of estrogen-receptor-positive disease (breast cancer; [9]): 45%

Which best tumor response (stage IV gastric cancer [1]; human, in vivo) does the source give for `C[C@@H]1COC(Nc2ccc3ncnc(Nc4ccc(OCc5nccs5)c(Cl)c4)c3c2)=N1` [varlitinib, (R)-N4-[3-Chloro-4-(thiazol-2-ylmethoxy)-phenyl]-N6-(4-methyl-4,5,-dihydro-oxazol-2-yl)-quinazoline-4,6-diamine] here?
The best tumor response was “stable disease”.

What about the “total treatment duration of maintenance therapy” value (shortened to “total treatment duration”) (stage IV gastric cancer [1]; person, monotherapy after 6 cycles of cisplatin/capecitabine plus 300 mg twice a day, discontinued due to disease progression) of the same molecule?
Its value is 134 days.

And the best tumor response (stage IV bladder cancer; human, in vivo)?
Its best tumor response is “stable disease”.

And the “total treatment duration” value (stage IV bladder cancer; person, monotherapy after 9 cycles of FOLFOX plus 300 mg twice a day, discontinued due to disease progression)?
Its value is 140 days.

What about the “adverse event leading to dose tapering” value (stage IV gastric cancer [2]; after 112 days of 400 mg monotherapy) of the same molecule?
Its value is “creatinine increase”.

What about the best tumor response (stage IV gastric cancer [2]; human, in vivo) of the same molecule?
The best tumor response was “partial response”.

And the “total treatment duration” value (stage IV gastric cancer [2]; person, 400 mg monotherapy, then 300 mg twice a day, discontinued due to disease progression)?
Its value is 243 days.

What about the “adverse event leading to dose reduction” value ([3]; monotherapy 400 mg bi-daily, at cycle 10 day 15) of the same molecule?
Its value is “increase in G3 creatinine levels”.

What about the “target lesion during maintenance therapy” value ([3]; period of 10 cycles of maintenance therapy) of the same molecule?
Its value is “no target lesion was observed”.

What about the “disease status during maintenance therapy” value ([3]; person, stage VI adenocarcinoma, monotherapy 400 then 300 mg bi-daily, 10 cycles of 28 days, after six cycles with doublet chemotherapy) of the same molecule?
The value was “stable disease”.

What about the “adverse event leading to dose tapering” value ([4]; after 99 days of 400 mg monotherapy) of the same molecule?
Its value is “creatinine increase”.

And the best tumor response ([4]; non-target disease)?
Its best tumor response is “non-complete response/non-progressive disease”.

What about the “total treatment duration” value ([4]; person, 400 mg monotherapy, then 300 mg twice a day 1 week on and 1 week off, discontinued due to disease progression) of the same molecule?
Its value is 287 days.

What about the “signs of clinical activity in tumor biopsies” value [5] of the same molecule?
The value was “downregulation of signalling pathways responsible for cell proliferation, and a reduction in cell survival and cell proliferation”.

What about the “adverse event leading to interruption and dose reduction” value ([6]; 400 mg per oral twice a day in combination with bi-weekly FOLFOX) of the same molecule?
The value was “grade 3 hyperbilirubinemia”.

What about the tumor status ([6]; after 504 days of maintenance treatment) of the same molecule?
The tumor status was “partial response”.

What about the “duration of maintenance treatment to date” value ([6]; person, monotherapy after 9 cycles with FOLFOX, 300 mg twice a day, ongoing) of the same molecule?
Its value is 504 days.

What about the tolerability [7] of the same molecule?
Its tolerability is “very well tolerated”.

What about the “duration of maintenance therapy before developing transitional cell carcinoma of the bladder” value [8] of the same molecule?
Its value is “about 6.5 years”.

— US20190321365A1, “Maintenance Therapy for the Treatment of Cancer” (Aslan Pharmaceuticals Pte. Ltd., priority 2016, published 2019)
